The results in this text go back to patent US8329913B2, “Carbazole derivative, solvate thereof, or pharmaceutically acceptable salt thereof” (Zeria Pharmaceutical Co., Ltd., priority 2004, dated 2012).

The target of this test is T1, human PPARγ (Homo sapiens, UniProt P37231).
T1 construct: 1.6 kb of fragment of the prepared plasmid pGEMT-hPPARg2 including human PPARγ gene; expressed in transfected cells; host or cells: CV-1 cells, transient transfection with pCI-hPPARg2, pCI-hRXRa and the reporter pGL3-PPRE3-TK
T1 sequence (P37231 1-505): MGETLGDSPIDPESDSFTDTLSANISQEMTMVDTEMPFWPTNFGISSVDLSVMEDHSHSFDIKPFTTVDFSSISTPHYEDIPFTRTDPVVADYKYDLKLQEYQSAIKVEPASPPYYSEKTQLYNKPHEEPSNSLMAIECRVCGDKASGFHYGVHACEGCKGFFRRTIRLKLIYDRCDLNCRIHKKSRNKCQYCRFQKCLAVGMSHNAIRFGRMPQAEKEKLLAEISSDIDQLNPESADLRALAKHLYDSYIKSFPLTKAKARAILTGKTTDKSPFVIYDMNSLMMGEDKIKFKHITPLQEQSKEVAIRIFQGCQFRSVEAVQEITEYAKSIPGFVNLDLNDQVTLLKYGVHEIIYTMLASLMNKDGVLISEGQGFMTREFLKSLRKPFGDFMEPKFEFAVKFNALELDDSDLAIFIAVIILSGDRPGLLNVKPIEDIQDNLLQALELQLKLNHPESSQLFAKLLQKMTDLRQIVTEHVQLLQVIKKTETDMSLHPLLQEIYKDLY
T1 sequence (P19793 1-462 partner): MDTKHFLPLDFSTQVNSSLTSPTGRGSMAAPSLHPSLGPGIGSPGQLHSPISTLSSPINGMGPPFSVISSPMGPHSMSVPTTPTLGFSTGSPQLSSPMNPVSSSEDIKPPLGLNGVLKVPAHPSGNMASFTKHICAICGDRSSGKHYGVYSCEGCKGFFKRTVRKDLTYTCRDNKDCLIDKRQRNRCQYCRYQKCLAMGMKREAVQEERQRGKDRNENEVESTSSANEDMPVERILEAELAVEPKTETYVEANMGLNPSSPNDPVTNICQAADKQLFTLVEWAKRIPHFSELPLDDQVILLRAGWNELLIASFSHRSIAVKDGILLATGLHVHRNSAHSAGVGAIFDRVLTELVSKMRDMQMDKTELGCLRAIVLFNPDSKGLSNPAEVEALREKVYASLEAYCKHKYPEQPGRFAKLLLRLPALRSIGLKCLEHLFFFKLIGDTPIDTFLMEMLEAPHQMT
In words: Human PPARγ antagonist assay (luciferase reporter in transfected CV-1 cells). The following applies: for IC50: CV-1 cells expressing human PPARγ and RXRα with reporter plasmid, pioglitazone 1 μM as stimulant, 24 hours, read-out: Human PPARγ antagonist activities, Inhibition IC50. Format: cell-based. As for the experimental part:
CV-1 cells (96 well plate), where human PPARγ and RXRα has expressed in the transient transfection of reporter plasmid (see reference 5a) were washed once with PBS (100 μL/well), and then supplemented with 100 μL/well […], as well as pioglitazone (not limited to pioglitazone shown as an example, but may be any PPARγ agonist) at a final concentration of 1 μM as a stimulant were added, and incubated in a 5% CO2 incubator at 37° C. for 24 hours. After removing the medium, the CV-1 cells were washed once with PBS (100 μL/well), and supplemented with 60 μL/well of 1× Passive Lysis Buffer (manufactured by Promega Corporation). The CV-1 cells were incubated at room temperature for 30 minutes, stirred, and then by using Dual-Luciferase Reporter Assay System (manufactured by Promega Corporation), luciferase activities of firefly and renilla were measured using 1420 ARVO Multilabel Counter (manufactured by Wallac Oy). Also, the same experiments as that described above were respectively carried out for the cases where only the above-mentioned stimulants (100 nM, 1 μM, 10 μM) were used, where only the above-mentioned test compounds were used, or where neither was used (nonsupplemented), and luciferase activities of firefly and renilla were measured. Values corrected by dividing the firefly luciferase activities by the renilla luciferase activities were calculated as specific activities and used for evaluations.
Human PPARγ2 antagonist activities of the test compounds were evaluated by using a percentage (inhibition) where the specific activity in case only […] was added is regarded as 0% and the specific activity in case the test compound and the stimulant were not added is regarded as 100%. Moreover, the concentration of the test compound indicating the inhibition rate of 50% was calculated as the IC50 value. Also, human PPARγ2 agonist activities of the test compounds were evaluated by using a percentage (activity) where the specific activity when nonsupplemented is regarded as 0% and the specific activity in case only 10 μM stimulant was added is regarded as 100%, from the specific activity in case only the test compound is used.
CV-1 cells were cultured in DMEM medium (manufactured by Invitrogen Corporation) including 10% fetal bovine serum (manufactured by Dainippon Pharmaceutical Co., Ltd.) in 225T-Flask (manufactured by Corning Costar). The cells were detached by 0.5 g/L trypsin-0.2 g/L EDTA (ethylene diamine tetra-acetic acid) (manufactured by Invitrogen Corporation), and then suspended in the DMEM medium including 10% fetal bovine serum to a cell concentration of 2×10^5 cells/mL. Thereafter, the cells were seeded into 96 well plate at 2×10^4 cells/0.1 mL/well, incubated in the 5% CO2 incubator at 37° C. overnight, and then the plasmids prepared by the above-mentioned reference 1a, reference 3a, and reference 4a were transfected into cells by using a lipofectamine reagent (manufactured by Invitrogen Corporation) according to the attached manual.
Namely, after CV-1 cells were cultured overnight, the cells were washed with PBS (100 μL/well). Thereafter the cells were incubated for 5 hours at 37° C./5% CO2 in the MEM medium (manufactured by Invitrogen Corporation) including 430 ng/mL of human PPARγ expression plasmid (pCI-hPPARg2) prepared by the reference 1a, 430 ng/mL of human RXRα expression plasmid (pCI-hRXRa) prepared by the reference 3a, and 140 ng/mL of the reporter plasmid (pGL3-PPRE3-TK) prepared by the reference 4a, 10 ng/mL of phRL-TK vector (manufactured by Promega Corporation) and 2 μL/mL of lipofectamine.

The IC50 is the concentration at which inhibition is half-maximal. Regarding `COc1cc(Cn2c3ccccc3c3c(Oc4cccc(C(=O)O)c4)cccc32)ccc1OCc1nc(-c2ccccc2)oc1C` [Example 48, sodium 3-{9-[3-methoxy-4-((5-methyl-2-phenyloxazole-4-yl)methoxy)-benzyl]-9H-carbazole-4-yloxy}benzoate], the 50% inhibitory concentration (IC50) turned out to be 2490 nM.

For `COc1cc(Cn2c3ccccc3c3c(OCCC(C)C(=O)O)cccc32)ccc1OCc1nc(-c2ccccc2)oc1C` (single isomer, unassigned) [Example 52, sodium (−)-4-{9-[3-methoxy-4-((5-methyl-2-phenyl-oxazole-4-yl)methoxy)-benzyl]-9H-carbazole-4-yloxy}-2-methyl-butyrate], the IC50 was determined as 173 nM.

As usually defined, the inhibition is the relative decrease from the control value, in per cent. As for `COc1cc(Cn2c3ccccc3c3c(OCC(=O)O)cccc32)ccc1OCc1nc(-c2ccco2)oc1C` [Example 2, 2-{9-[4-((2-(furan-2-yl)-5-methyl-oxazole-4-yl)methoxy)-3-methoxy-benzyl]-9H-carbazole-4-yloxy}acetic acid], the inhibition at 10 µM (at 10 μM test compound, CV-1 cells expressing human PPARγ and RXRα, pioglitazone as stimulant, read-out: Human PPARγ antagonist activities, Inhibition % at 10 μM) was 47.4%.

For the compound `COc1cc(Cn2c3ccccc3c3c(O[C@@H](C(=O)O)C(C)C)cccc32)ccc1OCc1nc(-c2ccccc2)oc1C` [Example 44, sodium (R)-2-{9-[3-methoxy-4-((5-methyl-2-phenyl-oxazole-4-yl)methoxy)-benzyl]-9H-carbazole-4-yloxy}-3-methyl-butyrate], the IC50 was found to be 462 nM.

As to `CCCCCC(Oc1cccc2c1c1ccccc1n2Cc1ccc(OCc2nc(-c3ccccc3)oc2C)c(OC)c1)C(=O)O` (racemic) [Example 18, (±)-2-{9-[3-methoxy-4-((5-methyl-2-phenyl-oxazole-4-yl)methoxy)-benzyl]-9H-carbazole-4-yloxy}heptane acid], the IC50 worked out at 829 nM.

Regarding `COc1cc(Cn2c3ccccc3c3c(OC(C(=O)O)c4ccccc4)cccc32)ccc1OCc1nc(-c2ccco2)oc1C` (racemic) [Example 6, (±)-2-{9-[4-((2-(furan-2-yl)-5-methyl-oxazole-4-yl)methoxy)-3-methoxy-benzyl]-9H-carbazole-4-yloxy}-2-phenylacetic acid], the IC50 worked out at 905 nM.

For the compound `COc1cc(Cn2c3ccccc3c3c(OCCCCC(=O)O)cccc32)ccc1OCc1nc(-c2ccccc2)oc1C` [Example 20, 5-{9-[3-methoxy-4-((5-methyl-2-phenyl-oxazole-4-yl)methoxy)-benzyl]-9H-carbazole-4-yloxy}valeric acid], the IC50 is 1600 nM.

For the compound `CCCC(Oc1cccc2c1c1ccccc1n2Cc1ccc(OCc2nc(-c3ccccc3)oc2C)c(OC)c1)C(=O)O` (racemic) [Example 11, (±)-2-{9-[3-methoxy-4-((5-methyl-2-phenyl-oxazole-4-yl)methoxy)-benzyl]-9H-carbazole-4-yloxy}valeric acid], the IC50 is 281 nM.

In the case of `CCCCCCC(Oc1cccc2c1c1ccccc1n2Cc1ccc(OCc2nc(-c3ccccc3)oc2C)c(OC)c1)C(=O)O` (racemic) [Example 19, (±)-2-{9-[3-methoxy-4-((5-methyl-2-phenyl-oxazole-4-yl)methoxy)-benzyl]-9H-carbazole-4-yloxy}caprylic acid], the IC50 was 882 nM.
